Measurements reported in patent publication US9309212B2, “Compositions and methods for modulating the activity of Epstein-Barr nuclear antigen 1” (The Wistar Institute, priority 2011, dated 2016).

B1: EBNA1 BS Hairpin (opl 3016 / opl 4624) (structured_DNA)
DNA: GGGTAGCATATGCTATCTAGATAGCATATGCTACCC

Assays:
EBNA1 = biological target: T1, EBNA1 (Epstein-Barr virus, UniProt P03211); test: cell-based assay (EBNA1 transcription derepression assay, Qp-luciferase reporter in 293T cells); details: final concentration range 125 μM-2 nM, 125000 nM = not active
T1 construct: expressed in transfected cells; host or cells: 293T cells
Description: EBNA1 Transcription Derepression Assay.
293T cells were seeded in 10-cm plates in DMEM media with 10% FBS. Following a 18-hour incubation at 37° C. to allow cells to adhere, cells at 50-70% confluence were transfected using 40 μL LIPOFECTAMINE (INVITROGEN) per plate. The cells were transfected with a 4 μg Qp-luciferase reporter plasmid (N1852) and 0.125 μg EBNA1 expression plasmid (N803) or 4 μg Qp-luciferase reporter plasmid (N1852) and 0.125 μg control plasmid (N799) (no EBNA) per plate. After 24 hours, the cells were harvested without trypsin, centrifuged 1200 RPM for 5 minutes and resuspended in DMEM media with 10% FBS at a concentration 100,000 cells per milliliter. Forty μL of this solution […] was dispensed to each well of the white plate using a BIOTEK MICROFLO Select Dispenser. Test compounds were added to achieve a final concentration range of 125 μM-2 nM, as described above. Cells were incubated at 37° C. for 48 hours, harvested and analyzed for luciferase activity using the PROMEGA STEADY-GLO luciferase system and read using a PERKIN ELMER 2104 Multilabel Reader.
Compounds were screened for activity in the cell-based assay disclosed herein.

EBNA1 DNA binding domain = EBNA1 DNA binding domain (Human herpesvirus 4, UniProt P03211 SEQ:454-607); test: FP; 200 mM NaCl, 20 mM Tris-Cl pH 7.4, 1 mM DTT, 10 ug/mL BSA, 25 C; 5 nM probe; probe performed significantly better in FP than in EMSA comparison; details: tags: hexa-histidine, E. coli expressed; chain copies: 2; label: CY5 (opl 3016) or FITC (opl 4624); hairpin
Sequence of EBNA1 DNA binding domain (P03211 454-607): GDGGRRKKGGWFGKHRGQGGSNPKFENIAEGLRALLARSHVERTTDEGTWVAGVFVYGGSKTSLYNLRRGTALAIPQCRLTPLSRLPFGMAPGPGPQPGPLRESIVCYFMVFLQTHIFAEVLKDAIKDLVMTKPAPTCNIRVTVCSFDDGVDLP

T1 sequence (P03211 whole entry): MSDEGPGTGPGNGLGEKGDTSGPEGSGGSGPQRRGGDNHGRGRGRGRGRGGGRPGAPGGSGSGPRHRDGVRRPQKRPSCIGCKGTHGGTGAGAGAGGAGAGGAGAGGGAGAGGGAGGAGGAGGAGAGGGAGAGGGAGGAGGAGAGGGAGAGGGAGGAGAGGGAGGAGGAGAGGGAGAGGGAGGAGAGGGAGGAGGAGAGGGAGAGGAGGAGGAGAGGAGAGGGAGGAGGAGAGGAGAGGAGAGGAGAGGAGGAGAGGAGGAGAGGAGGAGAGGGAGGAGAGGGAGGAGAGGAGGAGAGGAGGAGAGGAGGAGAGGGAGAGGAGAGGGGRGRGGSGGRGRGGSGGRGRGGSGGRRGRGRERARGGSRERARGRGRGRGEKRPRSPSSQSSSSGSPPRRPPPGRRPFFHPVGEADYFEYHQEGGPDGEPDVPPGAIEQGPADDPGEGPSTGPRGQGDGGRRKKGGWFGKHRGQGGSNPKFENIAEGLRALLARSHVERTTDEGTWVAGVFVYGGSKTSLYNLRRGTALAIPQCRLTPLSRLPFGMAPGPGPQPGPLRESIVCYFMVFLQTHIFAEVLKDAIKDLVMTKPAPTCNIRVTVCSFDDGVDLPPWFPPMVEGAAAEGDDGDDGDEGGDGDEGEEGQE

Molecule | IC50 (EBNA1) [nM] | binding result (EBNA1 DNA binding domain)
O=C(Oc1ccc(Cl)cc1)c1ccc2occc2c1 [VKE01441] | 9060 | 
Cc1csc(NC(=O)c2ccc3occc3c2)n1 [VKE01474] | 60.2 | 
CCc1ccccc1C(=O)Oc1ccc2occ([N+](=O)[O-])c2c1 [VKE01450] | 9020 | 
O=[N+]([O-])c1coc2ccc(OCc3ccc(Cl)cc3)cc12 [VKE01454] | 9780 | 
O=C(Cc1ccc(Cl)cc1Cl)Oc1ccc2occ([N+](=O)[O-])c2c1 [VKE01443] | > 125000 | 
O=C(Oc1ccc2occ([N+](=O)[O-])c2c1)c1ccncn1 [VKE01445] | > 125000 | 
O=C(Nc1ccc2occc2c1)c1ccc(N2CCOCC2)cc1 [VKE01462] | 298 | 
O=C(Oc1ccc2occ([N+](=O)[O-])c2c1)c1ccc(F)cc1Cl [VKE01451] | 3280 | 
O=C(Nc1ccc2occc2c1)c1ncccc1C(F)(F)F [VKE01464] | 1090 | 
O=C(Nc1ccccn1)c1ccc2occc2c1 [VKE01472] | 152 | 
CC(C)(C)c1ccc(NC(=O)c2ccc3occc3c2)cc1 [VKE01469] | 62.7 | 
CCCCc1ccc(C(=O)Nc2ccc3occc3c2)cc1 [VKE01460] | 12.3 | 
CC(C)(C)c1ccc(OC(=O)c2ccc3occc3c2)cc1 [VKE01442] | 2630 | 
O=C(Nc1ccc2occc2c1)c1cccnc1 [VKE01463] | 1260 | 
O=C(Nc1ccccc1F)c1ccc2occc2c1 [VKE01467] | 674 | 
O=C(Oc1ccc2occ([N+](=O)[O-])c2c1)c1ccno1 [VKE01447] | > 125000 | 
Cc1cc(NC(=O)c2ccc3occc3c2)ccc1Cl [VKE01470] | 42 | 
O=[N+]([O-])c1coc2ccc(OCc3ccccc3)cc12 [VKE01455] | 27200 | 

Molecule | IC50 (EBNA1) [nM] | binding result (EBNA1 DNA binding domain)
O=C(Oc1ccc2occ([N+](=O)[O-])c2c1)c1ccc(N2CCOCC2)cc1 [VKE01448] | 30600 | 
O=C(Oc1ccc2occ([N+](=O)[O-])c2c1)c1cccnc1 [VKE01444] | > 125000 | 
O=C(Oc1ccc2occ([N+](=O)[O-])c2c1)c1ccccc1C(F)(F)F [VKE01449] | > 125000 | 
CCCCc1ccc(C(=O)Oc2ccc3occ([N+](=O)[O-])c3c2)cc1 [VKE01453] | 1240 | 
O=C(Nc1ccc2occc2c1)c1ccc(F)cc1Cl [VKE01457] | 18.9 | 
O=[N+]([O-])c1coc2ccc(OCc3ccc(OC(F)(F)F)cc3)cc12 [VKE01456] | 14000 | 
O=C(Nc1ccc2occc2c1)c1ccncn1 [VKE01465] | 1660 | 
O=C(Nc1ccc2occc2c1)c1ccccc1C(F)(F)F [VKE01459] | 6520 | 
O=C(Nc1ccncc1)c1ccc2occc2c1 [VKE01473] | 20800 | 
Cc1cc(C)cc(CC(=O)Oc2ccc3occ([N+](=O)[O-])c3c2)c1 [VKE01452] | > 125000 | 
CCc1ccccc1C(=O)Nc1ccc2occc2c1 [VKE01461] | 1020 | 
O=C(Nc1ccc2occc2c1)c1ccc(C(F)(F)F)cc1 [VKE01458] | 4.76 | 
O=C(Oc1ccc2occ([N+](=O)[O-])c2c1)c1ncccc1C(F)(F)F [VKE01446] | > 125000 | 
O=C(Nc1ccc2occc2c1)c1ccno1 [VKE01466] | 83800 | 
O=C(Nc1ccc(F)c(F)c1)c1ccc2occc2c1 [VKE01471] | 847 | 
O=C(Nc1cccc(Cl)c1)c1ccc2occc2c1 [VKE01468] | 813 | 
B1 |  | binds
